Results published in PubChem BioAssay (NCI).
Where “and” joins values, the source holds several entries; their conditions need not be identical. Equal values may be shown once.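 The compound was tested at five concentrations on cells cultured in 96-well plates, with a 48-hour exposure period. Abbreviation: GI50, concentration required for 50% inhibition of growth. At the TGI there is no net growth.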

Key:
Test in all cases: NCI-60 cell line screen, 48 h
HT29 colon = tested on: HT29 colon
SK-MEL-5 melanoma = tested on: SK-MEL-5 melanoma
CCRF-CEM leukemia = tested on: CCRF-CEM leukemia
OVCAR-4 ovarian = tested on: OVCAR-4 ovarian
KM12 colon = tested on: KM12 colon
XF 498 CNS = tested on: XF 498 CNS
DMS 114 small cell lung = tested on: DMS 114 small cell lung
SNB-75 CNS = tested on: SNB-75 CNS
NCI-H226 lung = tested on: NCI-H226 lung
NCI/ADR-RES ovarian = tested on: NCI/ADR-RES ovarian

SMILES | TGI (HT29 colon) | TGI (SK-MEL-5 melanoma) | TGI (CCRF-CEM leukemia) | TGI (OVCAR-4 ovarian) [µM] | TGI (KM12 colon) | TGI (XF 498 CNS) [µM] | TGI (DMS 114 small cell lung) [µM] | TGI (SNB-75 CNS) | TGI (NCI-H226 lung) [µM] | GI50 (NCI/ADR-RES ovarian) [µM] | TGI (NCI/ADR-RES ovarian) [µM] | GI50 (HT29 colon) [µM] | GI50 (SK-MEL-5 melanoma) [µM] | GI50 (CCRF-CEM leukemia) [µM] | GI50 (OVCAR-4 ovarian) [µM] | GI50 (SNB-75 CNS) [µM] | GI50 (NCI-H226 lung) [µM] | GI50 (KM12 colon) [µM] | GI50 (DMS 114 small cell lung) [µM]
COC(=O)c1cc2c(nc1C)-c1ccccc1OS2(=O)=O | > 100 µM | > 100 µM | > 100 µM | > 100 | > 100 µM | > 100 | > 100 | 35.3 µM | > 100 |  |  |  |  |  |  |  |  |  | 
O=C(NC(Cc1ccccc1)C(=O)CCl)OCc1ccccc1 (centres undefined) | 16.5 µM and 37.3 µM | 16.9 µM and 26.4 µM | 13.8 µM and 11.6 µM | 13.5 | 22.2 µM and 21.7 µM |  | 4.66 | 18.9 µM and 30.2 µM | 55.5 | 6 | 53.7 | 3.53 | 4.38 | 2.34 | 2.04 | 4.77 | 13.4 |  | 
Cc1cc(Cl)ccc1Nc1nc2c(s1)C(=O)c1ccccc1C2=O | 54.6 µM | 3.34 µM | > 26.3 µM | 9.41 | 10.7 µM |  | 4.85 | 22 µM | 13.7 |  |  |  |  |  |  |  |  |  | 
C=C1CCC2(C(C)=O)COC1(C)O2 (centres undefined) | > 100 µM | > 100 µM | > 100 µM |  | > 100 µM | > 100 | > 100 | > 100 µM | > 100 |  |  |  |  |  |  |  |  |  | 
O=C1CCCCCCCCCCOC(=O)CCCCCCCCCCO1 | > 100 µM | > 100 µM | > 100 µM | > 100 | > 100 µM |  | > 100 | > 100 µM | > 100 |  |  |  |  |  |  |  |  |  | 
CN(CCCCN)c1ccc2c(=O)[nH][nH]c(=O)c2c1 | > 100 µM |  | > 100 µM | > 100 | > 100 µM | > 100 | > 100 | > 100 µM | > 100 |  |  |  |  |  |  |  |  |  | 
CCOC(=O)CP(=S)(S)c1ccccc1 (centres undefined) | > 100 µM | > 100 µM | > 100 µM | > 100 | > 100 µM | > 100 | > 100 |  | > 100 |  |  |  |  |  |  |  |  |  | 
C1=CC(=NN=P(c2ccccc2)(c2ccccc2)c2ccccc2)C=C1 | > 100 µM | > 100 µM | > 100 µM | > 100 | > 100 µM | > 100 | > 100 | > 100 µM |  |  |  |  |  |  |  |  |  |  | 
O=Cc1cn(S(=O)(=O)c2ccccc2)c2ccccc12 | > 100 µM |  | > 100 µM | > 100 | > 100 µM | > 100 | 62.9 | > 100 µM | > 100 |  |  |  |  |  |  |  |  |  | 
CC(O)c1ccc(C(O)/C(=N\NC(=O)c2ccncc2)c2nc3ccc([N+](=O)[O-])cc3[nH]c2=O)cc1 (centres undefined) | > 100 µM | > 100 µM | > 100 µM | > 100 | > 100 µM | > 100 | 98.2 | > 100 µM | > 100 |  |  |  |  |  |  |  |  |  | 
O=[P+](O)c1cccnc1 | > 100 µM | > 100 µM | > 100 µM | > 100 | > 100 µM | > 100 | > 100 | > 100 µM | > 100 |  |  |  |  |  |  |  |  |  | 
C=CNC(=S)n1nc(-c2ccccc2NC(=O)C(F)(F)F)c(=O)n(C(=S)NC=C)c1=S | 60.1 µM | 35.5 µM | > 100 µM | 19.6 | > 100 µM | 83 | 28.9 | 62.8 µM | 86.6 |  |  |  |  |  |  |  |  |  | 
Cn1cc(-c2ccc3nnc(C(F)(F)c4ccc5ncccc5c4)n3n2)cn1 | > 100 µM | > 100 µM | > 100 µM | > 100 | > 100 µM |  |  | > 92.4 µM | > 100 | 62.2 | > 100 | 63.6 | 43.2 | 98.7 | 38.5 | 22.2 | 58.5 | 43.6 | 
COc1ccc(Nc2ncccc2C(=O)NCc2cn(Cc3cccc(Oc4ccccc4)c3)nn2)c(OC)c1 | 13.5 µM | 7.93 µM | > 100 µM | > 100 | > 100 µM |  |  | > 84.5 µM | > 26.7 | 2.12 | 35.5 | 1.47 | 0.635 | 2.08 | 5.27 | 3.64 | 2.72 | 1.11 | 
C1C[S][Ge]2([S]CCS1)[S]CCSCC[S]2 |  |  | > 100 µM | > 100 |  |  | > 100 | 95 µM | > 100 |  |  |  |  | > 100 | > 100 | 18.9 | > 100 |  | > 100
CCCCC1N=CNc2c1ccc1c2[nH]c2ccccc21 (centres undefined) | 3.95 µM | 2.95 µM | 5.89 µM | 8.15 | 41.8 µM | 3.4 | 4.06 | 5.54 µM | > 61.1 |  |  |  |  |  |  |  |  |  | 
C/C(CC(=O)Nc1ccc([N+](=O)[O-])cc1)=N\Nc1ccc([N+](=O)[O-])cc1[N+](=O)[O-] | > 100 µM | > 100 µM | > 100 µM |  | > 100 µM | > 100 | > 100 | > 100 µM | > 100 |  |  |  |  |  |  |  |  |  | 
C[C@H]1CCC2C(CN3CCCCC3)C(=O)OC2[C@]2(C)C(=O)CC(N3CCCCC3)C12O (some centres undefined) | 16.4 µM | 16.3 µM | 10.1 µM |  | 12.3 µM |  | 13.1 | 49.4 µM | 6.73 |  |  |  |  |  |  |  |  |  | 
c1cnc2nc3n(c2c1)CSC3 | > 100 µM | > 100 µM | > 100 µM | > 100 | > 100 µM | > 100 | > 100 | > 100 µM | > 100 |  |  |  |  |  |  |  |  |  | 
Cn1c2c(c3ccccc31)CCN(CCCN1CCN(c3ccccc3)CC1)C2=O | 26.7 µM | 42.1 µM | 65.7 µM |  |  | 27.8 | 38.1 |  |  |  |  |  |  |  |  |  |  |  | 
O=C(O)CCCc1cc2c(s1)-c1cccc3cccc-2c13 | > 100 µM |  |  | > 100 | 42.3 µM | > 100 |  | > 100 µM | > 100 |  |  |  |  |  |  |  |  |  | 
COc1ccc2c(c1)C(=O)c1c-2c(OCCN2CCCCC2)nc2ccc(OC)cc12 | 2.7 µM | 5.61 µM | 2.66 µM | 10.7 | 2.1 µM |  |  | 11.2 µM | 2.82 | 0.761 | 10.3 | 0.435 | 1.92 | 0.197 | 1.36 | 1.27 | 0.705 | 0.585 | 
Cc1cc(N(CCC#N)CCC#N)ccc1CC1N=C(c2ccccc2)OC1=O (centres undefined) | > 100 µM | > 100 µM | > 100 µM | > 100 | > 100 µM | > 100 | > 100 | > 100 µM | > 100 |  |  |  |  |  |  |  |  |  | 
